From patent US20130023504A1, “Modulation of Prostaglandin/Cyclooxygenase Metabolic Pathways” (HUNTER-FLEMING LIMITED, priority 2006, published 2013)
Marks after values point to notes of the source that are not given here.

System: human PBMC
Assay: PG levels (PGE2, PGD2, 15d-PGJ2) in culture medium of human PBMC cultured with and without TNF-α, EIA (Example 3)
Type: cell-based
Method: Whole blood was collected from donors in EDTA-supplemented pouches at the Etablissement Français du Sang (Brest, France). The PBMC were isolated then from whole blood under sterile conditions within 36 hours after collection. Gradient density centrifugation was carried out on Ficoll (Eurobio). After washing in RPMI 1640 medium (Eurobio), cells were suspended in RPMI 1640 medium supplemented with 10% heat-inactivated fetal calf serum (Eurobio), 2 mM glutamine (D. Dutscher), 100 U of penicillin/ml (D. Dutscher), and 100 μg of streptomycin/ml (D. Dutscher). Monocytes were selected by plastic adherence for 1 h and approximately 10^7 cells were plated in 6-well tissue culture plates (3 mL medium per well). All incubations were performed in a humidified incubator at 37° C. and 5% CO2. Cells were recovered and dispersed in 2 ml fresh incubation medium supplemented with either 7β-hydroxyEPIA, 7β-hydroxy-DHEA, or 7α-hydroxy-DHEA (in 20 μL ethanol) in the presence or absence of 0.01 μg/mL TNF-α (Sigma-Aldrich). Control incubations contained 20 μl ethanol but no steroid. Supernatants were collected after 4 h and 24 hours incubations for measurement of their PG contents and cells were used for subsequent RNA isolation. A single step extraction method using the Trizol Reagent (Invitrogen, Cergy-Pontoise, France) provided total RNA.
Commercially available EIA kits were used for the determination of PGE2 levels (Oxford Biomedical Research, UK) and 15d-PGJ2 levels (Assay designs, Euromedex, France) in culture media. Measurement of PGD2 levels was obtained using the prostaglandin D2-MOX EIA kit (Cayman Chemical, Euromedex). In this case, and prior to assay, the fresh samples were immediately treated with the MOX-HCl reagent, which converted PGD2 into PGD2-MOX, thus preventing any further chemical degradation.
All assays were carried out in triplicate and results were plotted as mean±S.E.M. One-way analysis of variance was performed followed by Duncan's multiple range tests in order to compare the differences between groups. Differences were considered statistically significant when p<0.05.

[1] = 100 nM + TNF-α (10 ng/mL), 24 h

CC12CCC3C(C1CCC2=O)[C@@H](O)C[C@H]1C[C@@H](O)CCC31C (stereo partly drawn) [Compound 7β-OH-EPIA, 7β-hydroxy-EPIAndrosterone]
15d-PGJ2 (1 nM + TNF-α (10 ng/mL), 4 h): 0.37 ± 0.029 ng/mL
PGD2 (1 nM + TNF-α (10 ng/mL), 4 h): 0.22 ± 0.082 ng/mL
PGE2 (1 nM + TNF-α (10 ng/mL), 4 h): 0.50 ± 0.012 ng/mL
15d-PGJ2 (1 nM + TNF-α (10 ng/mL), 24 h): 2.18 ± 0.183^c ng/mL
PGD2 (1 nM + TNF-α (10 ng/mL), 24 h): 0.47 ± 0.013^d ng/mL
PGE2 (1 nM + TNF-α (10 ng/mL), 24 h): 0.70 ± 0.001^b ng/mL
15d-PGJ2 (1 nM, 4 h, without TNF-α): 0.39 ± 0.080 ng/mL
PGD2 (1 nM, 4 h, without TNF-α): 0.18 ± 0.005 ng/mL
PGE2 (1 nM, 4 h, without TNF-α): 0.26 ± 0.011 ng/mL
15d-PGJ2 (1 nM, 24 h, without TNF-α): 0.85 ± 0.014^a ng/mL
PGD2 (1 nM, 24 h, without TNF-α): 0.21 ± 0.012^a ng/mL
PGE2 (1 nM, 24 h, without TNF-α): 0.26 ± 0.015 ng/mL
15d-PGJ2 (10 nM + TNF-α (10 ng/mL), 4 h): 0.40 ± 0.007 ng/mL
PGD2 (10 nM + TNF-α (10 ng/mL), 4 h): 0.22 ± 0.010 ng/mL
PGE2 (10 nM + TNF-α (10 ng/mL), 4 h): 0.49 ± 0.021 ng/mL
15d-PGJ2 (10 nM + TNF-α (10 ng/mL), 24 h): 2.77 ± 0.021^c ng/mL
PGD2 (10 nM + TNF-α (10 ng/mL), 24 h): 0.42 ± 0.009^d ng/mL
PGE2 (10 nM + TNF-α (10 ng/mL), 24 h): 0.80 ± 0.012^b ng/mL
15d-PGJ2 (10 nM, 4 h, without TNF-α): 0.39 ± 0.010 ng/mL
PGD2 (10 nM, 4 h, without TNF-α): 0.19 ± 0.020 ng/mL
PGE2 (10 nM, 4 h, without TNF-α): 0.23 ± 0.022 ng/mL
15d-PGJ2 (10 nM, 24 h, without TNF-α): 0.91 ± 0.032^a ng/mL
PGD2 (10 nM, 24 h, without TNF-α): 0.23 ± 0.001^a ng/mL
PGE2 (10 nM, 24 h, without TNF-α): 0.23 ± 0.021 ng/mL
15d-PGJ2 (100 nM + TNF-α (10 ng/mL), 4 h): 0.37 ± 0.016 ng/mL
PGD2 (100 nM + TNF-α (10 ng/mL), 4 h): 0.23 ± 0.007 ng/mL
PGE2 (100 nM + TNF-α (10 ng/mL), 4 h): 0.42 ± 0.020 ng/mL
15d-PGJ2 [1]: 0.85 ± 0.019^ ng/mL
PGD2 [1]: 0.40 ± 0.030^d ng/mL
PGE2 [1]: 0.71 ± 0.012^b ng/mL
15d-PGJ2 (100 nM, 4 h, without TNF-α): 0.37 ± 0.018 ng/mL
PGD2 (100 nM, 4 h, without TNF-α): 0.20 ± 0.013 ng/mL
PGE2 (100 nM, 4 h, without TNF-α): 0.22 ± 0.020 ng/mL
15d-PGJ2 (100 nM, 24 h, without TNF-α): 1.70 ± 0.016^a ng/mL
PGD2 (100 nM, 24 h, without TNF-α): 0.24 ± 0.031^a ng/mL
PGE2 (100 nM, 24 h, without TNF-α): 0.24 ± 0.022 ng/mL
